Laboratory results: PubChem BioAssay (NCI)
Values joined by “and” are separate entries in the source; they are usually repeats but may differ in a detail not shown here. Equal values may be shown once.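 Briefly, cells in 96-well plates were exposed to five compound concentrations for 48 h, and endpoints were estimated by linear interpolation. The concentration for 50% growth inhibition is given as GI50. TGI: concentration producing complete growth inhibition.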

Columns and labels:
Assay in all cases: inhibition of tumour cell growth, NCI panel, 48 h
786-0 renal = tested on: 786-0 renal
A498 renal = tested on: A498 renal
A549 NSCLC = tested on: A549 NSCLC
ACHN renal = tested on: ACHN renal
BT-549 breast = tested on: BT-549 breast
CAKI-1 renal = tested on: CAKI-1 renal
CCRF-CEM leukemia = tested on: CCRF-CEM leukemia
COLO 205 colon = tested on: COLO 205 colon
DLD-1 colon = tested on: DLD-1 colon
EKVX NSCLC = tested on: EKVX NSCLC
HCC-2998 colon = tested on: HCC-2998 colon
HCT-116 colon = tested on: HCT-116 colon
HCT-15 colon = tested on: HCT-15 colon
HL-60(TB) leukemia = tested on: HL-60(TB) leukemia
HOP-18 NSCLC = tested on: HOP-18 NSCLC
HOP-62 NSCLC = tested on: HOP-62 NSCLC
HOP-92 NSCLC = tested on: HOP-92 NSCLC
HS 578T breast = tested on: HS 578T breast
HT29 colon = tested on: HT29 colon
IGROV1 ovarian = tested on: IGROV1 ovarian
K-562 leukemia = tested on: K-562 leukemia
KM12 colon = tested on: KM12 colon
KM20L2 colon = tested on: KM20L2 colon
LOX IMVI melanoma = tested on: LOX IMVI melanoma
LXFL 529 NSCLC = tested on: LXFL 529 NSCLC
M14 melanoma = tested on: M14 melanoma
MALME-3M melanoma = tested on: MALME-3M melanoma
MCF7 breast = tested on: MCF7 breast
MDA-MB-231 breast = tested on: MDA-MB-231 breast
MOLT-4 leukemia = tested on: MOLT-4 leukemia
NCI-H226 lung = tested on: NCI-H226 lung
NCI-H23 lung = tested on: NCI-H23 lung
NCI-H460 lung = tested on: NCI-H460 lung
NCI-H522 lung = tested on: NCI-H522 lung
NCI/ADR-RES ovarian = tested on: NCI/ADR-RES ovarian
OVCAR-3 ovarian = tested on: OVCAR-3 ovarian
OVCAR-4 ovarian = tested on: OVCAR-4 ovarian
OVCAR-5 ovarian = tested on: OVCAR-5 ovarian
OVCAR-8 ovarian = tested on: OVCAR-8 ovarian
PC-3 prostate = tested on: PC-3 prostate
RPMI-8226 leukemia = tested on: RPMI-8226 leukemia
RXF 393 renal = tested on: RXF 393 renal
RXF-631 renal = tested on: RXF-631 renal
SF-268 CNS = tested on: SF-268 CNS
SF-295 CNS = tested on: SF-295 CNS
SF-539 CNS = tested on: SF-539 CNS
SK-MEL-2 melanoma = tested on: SK-MEL-2 melanoma
SK-MEL-28 melanoma = tested on: SK-MEL-28 melanoma
SK-MEL-5 melanoma = tested on: SK-MEL-5 melanoma
SK-OV-3 ovarian = tested on: SK-OV-3 ovarian
SN12C renal = tested on: SN12C renal
SNB-19 CNS = tested on: SNB-19 CNS
SNB-75 CNS = tested on: SNB-75 CNS
SNB-78 CNS = tested on: SNB-78 CNS
SR leukemia = tested on: SR leukemia
SW-620 colon = tested on: SW-620 colon
T-47D breast = tested on: T-47D breast
TK-10 renal = tested on: TK-10 renal
U251 CNS = tested on: U251 CNS
UACC-257 melanoma = tested on: UACC-257 melanoma
UACC-62 melanoma = tested on: UACC-62 melanoma
UO-31 renal = tested on: UO-31 renal
XF 498 CNS = tested on: XF 498 CNS

COc1ccc(/C=C\c2cc(OC)c(OC)c(OC)c2)cc1OC
GI50 (786-0 renal): 0.616 µM
TGI (786-0 renal): 40.4 µM and > 100 µM
TGI (A498 renal): 40.4 µM
GI50 (A549 NSCLC): 0.211 µM
TGI (A549 NSCLC): 40.4 µM and > 100 µM
GI50 (ACHN renal): 0.763 µM
TGI (ACHN renal): 40.4 µM and 85 µM
TGI (BT-549 breast): > 100 µM
TGI (CAKI-1 renal): 40.4 µM
GI50 (CCRF-CEM leukemia): 0.0791 µM
GI50 (COLO 205 colon): 0.11 µM
TGI (COLO 205 colon): 0.171 µM and 0.662 µM
TGI (DLD-1 colon): 40.4 µM
GI50 (EKVX NSCLC): 0.333 µM
TGI (EKVX NSCLC): 40.4 µM and > 100 µM
TGI (HCC-2998 colon): 0.579 µM and 0.372 µM
GI50 (HCT-116 colon): 0.0482 µM
TGI (HCT-116 colon): 40.4 µM and 24.4 µM
GI50 (HCT-15 colon): 0.0595 µM
TGI (HCT-15 colon): 40.4 µM and > 100 µM
GI50 (HL-60(TB) leukemia): 0.0231 µM
TGI (HL-60(TB) leukemia): 0.332 µM and 0.0582 µM
TGI (HOP-18 NSCLC): 40.4 µM
GI50 (HOP-62 NSCLC): 0.58 µM
TGI (HOP-62 NSCLC): 40.4 µM and > 100 µM
GI50 (HOP-92 NSCLC): 0.0473 µM
TGI (HOP-92 NSCLC): 40.4 µM and 8.55 µM
TGI (HS 578T breast): 68 µM
GI50 (HT29 colon): 0.043 µM
TGI (HT29 colon): 31.4 µM
GI50 (IGROV1 ovarian): 0.0537 µM
TGI (IGROV1 ovarian): 40.4 µM and 21.5 µM
GI50 (K-562 leukemia): 0.0329 µM
TGI (K-562 leukemia): 40.4 µM and 15.7 µM
GI50 (KM12 colon): 0.0513 µM
TGI (KM20L2 colon): 0.141 µM
GI50 (LOX IMVI melanoma): 0.0829 µM
TGI (LOX IMVI melanoma): 40.4 µM and 17.7 µM
TGI (LXFL 529 NSCLC): 3.14 µM
GI50 (M14 melanoma): 0.0603 µM
TGI (M14 melanoma): 40.4 µM and 18.1 µM
TGI (MALME-3M melanoma): 91.6 µM
TGI (MCF7 breast): > 100 µM
TGI (MDA-MB-231 breast): > 100 µM
TGI (MOLT-4 leukemia): 28 µM and 14.6 µM
GI50 (NCI-H226 lung): 0.297 µM
GI50 (NCI-H23 lung): 0.447 µM
TGI (NCI-H23 lung): 40.4 µM and > 100 µM
GI50 (NCI-H460 lung): 0.181 µM
TGI (NCI-H460 lung): 40.4 µM and 16.7 µM
GI50 (NCI-H522 lung): 0.154 µM
TGI (NCI/ADR-RES ovarian): > 100 µM
GI50 (OVCAR-3 ovarian): 0.0543 µM
TGI (OVCAR-3 ovarian): 0.256 µM and 0.801 µM
GI50 (OVCAR-4 ovarian): 11.6 µM
TGI (OVCAR-4 ovarian): 40.4 µM and > 100 µM
GI50 (OVCAR-5 ovarian): 0.324 µM
TGI (OVCAR-5 ovarian): 40.4 µM and > 100 µM
GI50 (OVCAR-8 ovarian): 0.275 µM
TGI (PC-3 prostate): > 100 µM
GI50 (RPMI-8226 leukemia): 0.224 µM
TGI (RPMI-8226 leukemia): 12.4 µM and 15.8 µM
TGI (RXF 393 renal): > 100 µM
TGI (RXF-631 renal): 40.4 µM
GI50 (SF-268 CNS): 0.214 µM
TGI (SF-268 CNS): 40.4 µM and > 100 µM
GI50 (SF-295 CNS): 0.0672 µM
TGI (SF-295 CNS): 40.4 µM and > 100 µM
GI50 (SF-539 CNS): 0.0605 µM
TGI (SF-539 CNS): 0.294 µM and 0.283 µM
GI50 (SK-MEL-2 melanoma): 0.121 µM
TGI (SK-MEL-2 melanoma): 40.4 µM and > 100 µM
TGI (SK-MEL-28 melanoma): > 100 µM
GI50 (SK-MEL-5 melanoma): 0.0514 µM
TGI (SK-MEL-5 melanoma): 40.4 µM and 16.8 µM
GI50 (SK-OV-3 ovarian): 0.187 µM
TGI (SK-OV-3 ovarian): > 100 µM
GI50 (SN12C renal): 0.94 µM
GI50 (SNB-19 CNS): 0.32 µM
TGI (SNB-19 CNS): 40.4 µM and 83.6 µM
TGI (SNB-75 CNS): 40.4 µM
TGI (SNB-78 CNS): 40.4 µM
GI50 (SR leukemia): 0.0204 µM
TGI (SR leukemia): 0.277 µM and 0.0612 µM
GI50 (SW-620 colon): 0.0472 µM
TGI (SW-620 colon): 40.4 µM and > 100 µM
TGI (T-47D breast): > 100 µM
GI50 (TK-10 renal): 23.5 µM
TGI (TK-10 renal): 40.4 µM and > 100 µM
GI50 (U251 CNS): 0.0975 µM
GI50 (UACC-257 melanoma): 6.09 µM
TGI (UACC-257 melanoma): 40.4 µM and > 100 µM
GI50 (UACC-62 melanoma): 0.036 µM
TGI (UACC-62 melanoma): 40.4 µM and > 100 µM
GI50 (UO-31 renal): 0.805 µM
TGI (UO-31 renal): 40.4 µM and 50.3 µM
TGI (XF 498 CNS): 0.401 µM
